Measurements published in BindingDB's records for patent US20240209019 (Ardelyx, 2024).

Target: T1, 11-beta-hydroxysteroid dehydrogenase type 2 (Homo sapiens, UniProt P80365)
T1 sequence (P80365 whole entry): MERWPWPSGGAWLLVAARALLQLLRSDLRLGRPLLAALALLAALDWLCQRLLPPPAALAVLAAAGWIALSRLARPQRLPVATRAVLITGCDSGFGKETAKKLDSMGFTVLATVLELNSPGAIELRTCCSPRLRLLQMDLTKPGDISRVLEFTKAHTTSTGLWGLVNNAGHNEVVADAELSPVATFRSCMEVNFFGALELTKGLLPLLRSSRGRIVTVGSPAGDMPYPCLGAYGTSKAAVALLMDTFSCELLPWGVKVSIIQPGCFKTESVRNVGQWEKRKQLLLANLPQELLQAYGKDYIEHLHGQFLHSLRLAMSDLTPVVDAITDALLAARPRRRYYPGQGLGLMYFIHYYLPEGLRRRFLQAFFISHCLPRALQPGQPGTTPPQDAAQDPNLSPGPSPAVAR
Assay: HSD2 Activity
Method: Compounds were diluted in DMSO and serial dilutions prepared by titrating in DMSO. Compounds were then diluted into DMEM/F12. Transwell plates containing descending colon cultures were washed twice with DMEM/F12 and compound was added to the apical compartment. Cells were incubated with test compound for 30 minutes at 37° C., 5% CO2 to equilibrate across the cell membrane. A second compound plate was prepared in which the serially diluted compounds in DMSO were diluted into DMEM/F12 containing 40 nM cortisol. Following the 30 minute pre-incubation step, the apical media was aspirated and compounds diluted in DMEM/F12 with 40 nM cortisol were added to the apical side of the transwell. The plate was then incubated for four hours at 37° C., 5% CO2. Cortisol levels were measured using a cortisol HTRF assay kit as described by the manufacturer (Cisbio).

CCCOCCOCCOCCOC(=O)O[C@H]1CC[C@@]2(C)[C@@H](CC[C@]3(C)[C@@H]2C(=O)C=C2[C@@H]4C[C@@](C)(C(=O)O)CC[C@]4(C)CC[C@]23C)[C@]1(C)C(=O)O [US20240209019, Compound noid16]
IC50: > 10 µM
